The target in the assay is T1, human mAChR M4 (Homo sapiens, UniProt P08173).
T1 construct: expressed in transfected cells; host or cells: CHO-K1 (ATCC), stably co-expressing chimeric G protein Gqi5
T1 sequence (P08173 1-479): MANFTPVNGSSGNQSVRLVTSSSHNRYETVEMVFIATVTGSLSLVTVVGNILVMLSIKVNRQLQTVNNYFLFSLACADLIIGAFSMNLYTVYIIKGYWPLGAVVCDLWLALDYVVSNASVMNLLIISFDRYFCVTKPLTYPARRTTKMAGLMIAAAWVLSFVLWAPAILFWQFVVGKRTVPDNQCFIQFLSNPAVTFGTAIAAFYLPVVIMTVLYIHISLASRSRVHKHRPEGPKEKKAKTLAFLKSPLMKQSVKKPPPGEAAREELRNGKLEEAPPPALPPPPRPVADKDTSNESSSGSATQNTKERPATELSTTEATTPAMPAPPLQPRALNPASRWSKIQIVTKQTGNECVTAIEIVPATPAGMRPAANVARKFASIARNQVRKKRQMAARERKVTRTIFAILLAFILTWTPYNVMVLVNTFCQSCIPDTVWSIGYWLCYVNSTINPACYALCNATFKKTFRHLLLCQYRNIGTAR
The experiment in a line: mAChR M4 cell-based functional assay (calcium mobilization, EC80 acetylcholine), human M4. The conditions noted are these: Table 10. An outline of the steps: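 CHO-K1 cells stably expressing human M4 with chimeric Gqi5; intracellular calcium rise read on FDSS as fluorescence static ratio at 1 Hz. Compounds in 10-point 1:3 dilution series; IC50 taken as concentration-dependent decrease of the EC80 acetylcholine response, four-parameter logistic fit.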

[1] abbreviates: M4/Gqi5/CHO-K1 cells, decrease of EC80 acetylcholine response.

Where only a bound is given, the exact number is not on record here.

For `Fc1ccc(Cl)c(-c2ccc(N[C@H]3C[C@@H]4CN(Cc5ccoc5)C[C@@H]4C3)nn2)c1` [Compound 178, (3aR,5s,6aS)-N-[6-(2-chloro-5-fluoro-phenyl)pyridazin-3-yl]-2-(3-furylmethyl)-3,3a,4,5,6,6a-hexahydro-1H-cyclopenta[c]pyrrol-5-amine], the “Human M4 Emin” value is 3%. Further, the half-maximal inhibitory concentration (IC50) under setting [1] stood at 0.0451 µM.
In the case of `Clc1ccc(N[C@H]2C[C@@H]3CN(CC4CCOCC4)C[C@@H]3C2)nn1` [Compound 179, (3aR,5s,6aS)-N-(6-chloropyridazin-3-yl)-2-(tetrahydropyran-4-ylmethyl)-3,3a,4,5,6,6a-hexahydro-1H-cyclopenta[c]pyrrol-5-amine], the “Human M4 Emin” value is 29%. Also, the IC50 (μM) is more than 10 µM.
Take `CC(=O)Nc1ccc(-c2ccc(N[C@H]3C[C@@H]4CN(CC5CCOCC5)C[C@@H]4C3)nn2)cc1` [Compound 180, N-[4-[6-[[(3aR,5s,6aS)-2-(tetrahydropyran-4-ylmethyl)-3,3a,4,5,6,6a-hexahydro-1H-cyclopenta[c]pyrrol-5-yl]amino]pyridazin-3-yl]phenyl]acetamide]: the “Human M4 Emin” value came out at 8%. For the same compound, the IC50 under setting [1] came to 0.00117 µM.
For `c1cnc2ccc(-c3ccc(N[C@H]4C[C@@H]5CN(CC6CCOCC6)C[C@@H]5C4)nn3)cc2c1` [Compound 181, (3aR,5s,6aS)-N-[6-(6-quinolyl)pyridazin-3-yl]-2-(tetrahydropyran-4-ylmethyl)-3,3a,4,5,6,6a-hexahydro-1H-cyclopenta[c]pyrrol-5-amine], the “Human M4 Emin” value turned out to be 4%. Further, under setting [1], the IC50 came to 0.00142 µM.
In the same order, the values of `c1cc2c(cc1-c1ccc(N[C@H]3C[C@@H]4CN(CC5CCOCC5)C[C@@H]4C3)nn1)OCO2` [Compound 182, (3aR,5s,6aS)-N-[6-(1,3-benzodioxol-5-yl)pyridazin-3-yl]-2-(tetrahydropyran-4-ylmethyl)-3,3a,4,5,6,6a-hexahydro-1H-cyclopenta[c]pyrrol-5-amine] are 4% and 0.00187 µM.
In the same order, the values of `c1cn2cc(-c3ccc(N[C@H]4C[C@@H]5CN(CC6CCOCC6)C[C@@H]5C4)nn3)ccc2n1` [Compound 183, (3aR,5s,6aS)-N-(6-imidazo[1,2-a]pyridin-6-ylpyridazin-3-yl)-2-(tetrahydropyran-4-ylmethyl)-3,3a,4,5,6,6a-hexahydro-1H-cyclopenta[c]pyrrol-5-amine] are 7% and 0.00107 µM.
The matching figures for `FC(F)(F)Oc1ccc(-c2ccc(N[C@H]3C[C@@H]4CN(CC5CCOCC5)C[C@@H]4C3)nn2)cc1` [Compound 184, (3aR,5s,6aS)-2-(tetrahydropyran-4-ylmethyl)-N-[6-[4-(trifluoromethoxy)phenyl]pyridazin-3-yl]-3,3a,4,5,6,6a-hexahydro-1H-cyclopenta[c]pyrrol-5-amine]: 5% and 0.0567 µM.
In the case of `Fc1ccccc1-c1ccc(N[C@H]2C[C@@H]3CN(CC4CCOCC4)C[C@@H]3C2)nn1` [Compound 185, (3aR,5s,6aS)-N-[6-(2-fluorophenyl)pyridazin-3-yl]-2-(tetrahydropyran-4-ylmethyl)-3,3a,4,5,6,6a-hexahydro-1H-cyclopenta[c]pyrrol-5-amine], the “Human M4 Emin” value came out at 4%. Besides, the half-maximal inhibitory concentration (IC50) under setting [1] was found to be 0.000667 µM.
As to `Fc1ccc(-c2ccc(N[C@H]3C[C@@H]4CN(CC5CCOCC5)C[C@@H]4C3)nn2)cc1` [Compound 187, (3aR,5s,6aS)-N-[6-(4-fluorophenyl)pyridazin-3-yl]-2-(tetrahydropyran-4-ylmethyl)-3,3a,4,5,6,6a-hexahydro-1H-cyclopenta[c]pyrrol-5-amine], the “Human M4 Emin” value is 4%. Also, under setting [1], the IC50 was found to be 0.0046 µM.
Take `c1coc(-c2ccc(N[C@H]3C[C@@H]4CN(CC5CCOCC5)C[C@@H]4C3)nn2)c1` [Compound 188, (3aR,5s,6aS)-N-[6-(2-furyl)pyridazin-3-yl]-2-(tetrahydropyran-4-ylmethyl)-3,3a,4,5,6,6a-hexahydro-1H-cyclopenta[c]pyrrol-5-amine]: the “Human M4 Emin” value amounted to 14%. For the same compound, the IC50 under setting [1] was determined as 0.00794 µM.
The matching figures for `FC1(F)CCN(c2ccc(N[C@H]3C[C@@H]4CN(CC5CCOCC5)C[C@@H]4C3)nn2)C1` [Compound 189, (3aR,5s,6aS)-N-[6-(3,3-difluoropyrrolidin-1-yl)pyridazin-3-yl]-2-(tetrahydropyran-4-ylmethyl)-3,3a,4,5,6,6a-hexahydro-1H-cyclopenta[c]pyrrol-5-amine]: 8% and 0.00207 µM.
Take `FC1(F)CCN(c2ccc(N[C@H]3C[C@@H]4CN(CC5CCOCC5)C[C@@H]4C3)nn2)CC1` [Compound 190, (3aR,5s,6aS)-N-[6-(4,4-difluoro-1-piperidyl)pyridazin-3-yl]-2-(tetrahydropyran-4-ylmethyl)-3,3a,4,5,6,6a-hexahydro-1H-cyclopenta[c]pyrrol-5-amine]: the “Human M4 Emin” value is 4%. In addition, the IC50 under setting [1] is 0.00167 µM.
The matching figures for `c1cc(N2CCOCC2)nnc1N[C@H]1C[C@@H]2CN(CC3CCOCC3)C[C@@H]2C1` [Compound 191, (3aR,5s,6aS)-N-(6-morpholinopyridazin-3-yl)-2-(tetrahydropyran-4-ylmethyl)-3,3a,4,5,6,6a-hexahydro-1H-cyclopenta[c]pyrrol-5-amine]: 5% and 0.0134 µM.
`c1cc(N2CCCC2)nnc1N[C@H]1C[C@@H]2CN(CC3CCOCC3)C[C@@H]2C1` [Compound 192, (3aR,5s,6aS)-N-(6-pyrrolidin-1-ylpyridazin-3-yl)-2-(tetrahydropyran-4-ylmethyl)-3,3a,4,5,6,6a-hexahydro-1H-cyclopenta[c]pyrrol-5-amine]: the “Human M4 Emin” value came out at 6%. The half-inhibitory concentration (IC50) under setting [1] was 0.0406 µM.
As to `c1cc(N2CCCCC2)nnc1N[C@H]1C[C@@H]2CN(CC3CCOCC3)C[C@@H]2C1` [Compound 193, (3aR,5s,6aS)-N-[6-(1-piperidyl)pyridazin-3-yl]-2-(tetrahydropyran-4-ylmethyl)-3,3a,4,5,6,6a-hexahydro-1H-cyclopenta[c]pyrrol-5-amine], the “Human M4 Emin” value is 3%. The IC50 under setting [1] amounted to 0.0008 µM.
In the same order, the values of `F[C@@H]1CCN(c2ccc(N[C@H]3C[C@@H]4CN(CC5CCOCC5)C[C@@H]4C3)nn2)C1` [Compound 194, (3aR,5s,6aS)-N-[6-[(3S)-3-fluoropyrrolidin-1-yl]pyridazin-3-yl]-2-(tetrahydropyran-4-ylmethyl)-3,3a,4,5,6,6a-hexahydro-1H-cyclopenta[c]pyrrol-5-amine] are 5% and 0.0125 µM.
`F[C@H]1CCN(c2ccc(N[C@H]3C[C@@H]4CN(CC5CCOCC5)C[C@@H]4C3)nn2)C1` [Compound 195, (3aR,5s,6aS)-N-[6-[(3R)-3-fluoropyrrolidin-1-yl]pyridazin-3-yl]-2-(tetrahydropyran-4-ylmethyl)-3,3a,4,5,6,6a-hexahydro-1H-cyclopenta[c]pyrrol-5-amine]: the “Human M4 Emin” value was found to be 4%. In addition, the half-maximal inhibitory concentration (IC50) under setting [1] was 0.00911 µM.
Take `FC1(F)CCCN(c2ccc(N[C@H]3C[C@@H]4CN(CC5CCOCC5)C[C@@H]4C3)nn2)C1` [Compound 196, (3aR,5s,6aS)-N-[6-(3,3-difluoro-1-piperidyl)pyridazin-3-yl]-2-(tetrahydropyran-4-ylmethyl)-3,3a,4,5,6,6a-hexahydro-1H-cyclopenta[c]pyrrol-5-amine]: the “Human M4 Emin” value is given as 4%. In addition, the IC50 under setting [1] came out at 0.00209 µM.
In the same order, the values of `c1ccc(-c2ccc(N[C@H]3C[C@@H]4CN(CC5CCOCC5)C[C@@H]4C3)nn2)cc1` [Compound 197, (3aR,5s,6aS)-N-(6-phenylpyridazin-3-yl)-2-(tetrahydropyran-4-ylmethyl)-3,3a,4,5,6,6a-hexahydro-1H-cyclopenta[c]pyrrol-5-amine] are 9% and 0.00125 µM.
The matching figures for `Cc1ccc(-c2ccc(N[C@H]3C[C@@H]4CN(CC5CCOCC5)C[C@@H]4C3)nn2)cc1` [Compound 198, (3aR,5s,6aS)-N-[6-(p-tolyl)pyridazin-3-yl]-2-(tetrahydropyran-4-ylmethyl)-3,3a,4,5,6,6a-hexahydro-1H-cyclopenta[c]pyrrol-5-amine]: 6% and 0.00399 µM.
In the same order, the values of `COc1ccccc1-c1ccc(N[C@H]2C[C@@H]3CN(CC4CCOCC4)C[C@@H]3C2)nn1` [Compound 199, (3aR,5s,6aS)-N-[6-(2-methoxyphenyl)pyridazin-3-yl]-2-(tetrahydropyran-4-ylmethyl)-3,3a,4,5,6,6a-hexahydro-1H-cyclopenta[c]pyrrol-5-amine] are 5% and 0.000579 µM.
As for `COc1cccc(-c2ccc(N[C@H]3C[C@@H]4CN(CC5CCOCC5)C[C@@H]4C3)nn2)c1` [Compound 200, (3aR,5s,6aS)-N-[6-(3-methoxyphenyl)pyridazin-3-yl]-2-(tetrahydropyran-4-ylmethyl)-3,3a,4,5,6,6a-hexahydro-1H-cyclopenta[c]pyrrol-5-amine], the “Human M4 Emin” value worked out at 6%. The IC50 under setting [1] was 0.004 µM.

For the origin of these results see patent US12577234B2, “Antagonists of the muscarinic acetylcholine receptor M4” (Vanderbilt University, priority 2017, dated 2026).
